Data set [1] has as its target T1, PSMA (Homo sapiens, UniProt Q04609).
T1 construct: host or cells: PC-3pip (PC-3 cells transfected with PSMA)
The data set can be described thus: Binding inhibition of [^111In]In-PSMA-617 on PC-3pip cells, GRPRs blocked (IC50). Conditions: competitor 1 nM [^111In]In-PSMA-617, GRPRs blocked with 200 nM RM26, 4 °C, 5 h, non-iodinated heterodimers. On the procedure: Cells were incubated at 4 °C for 5 h. After incubation, the cells were detached with trypsin–EDTA and the activity in cell samples was measured. Data were plotted using nonlinear regression.

The format of data set [2] is physicochemical. On the procedure: The octanol–water distribution coefficient was determined as described earlier. Briefly, 500 µL of Milli-Q water and 500 µL of n-octanol were added in an Eppendorf tube containing radiolabeled peptide. The tube was vortexed for 2 min and centrifuged for 20 s. Fractions of each phase were collected and their activity was measured.

Data set [3] has as its system PC-3pip cells (GRPR and PSMA positive). As to the kind of experiment: Cellular retention of activity after interrupted incubation, PC-3pip cells. The data set is classed as cell-based. Conditions: 24 h. On the procedure:
(§1) The cellular retention of activity after interrupted incubation was carried out on PC-3, LNCaP, and PC-3pip cells. A concentration of 20 nM of each radiolabeled heterodimer was added to the cells and the dishes were incubated at 4 °C for 2 h. The media was aspired, and the cells were further incubated with complete media at 37 °C. At predetermined time points, the media was collected, and the cells were detached with trypsin–EDTA and collected. The radioactivity content of each collected fraction was measured.

The subject of data set [4] is PSMA. The conditions noted are these: LNCaP xenografts, 1 h pi, p < 0.05.
Method: All in vivo experiments were carried out on BALB/c nu/nu mice provided by Scanbur A/S (Sweden). PC-3, LNCaP, and PC-3pip tumor xenografts were established by implanting 5 × 10^6 cells/mouse for PC-3 and PC-3pip xenografts, and 10 × 10^6 cells for LNCaP xenografts. The in vivo experiments were carried out when palpable tumors were observed. Animal weight at the moment of experiment was 20 ± 2 g, 21 ± 3 g, 14.5 ± 0.8 g, and average tumor size was 0.2 ± 0.1 g, 0.05 ± 0.04 g, 0.4 ± 0.1 g for PC-3, LNCaP, and PC-3pip models, respectively.
In vivo specificity for the radiolabeled heterodimers was tested on mice bearing PC-3 or LNCaP xenografts. The mice were injected with 40 pmol (30 KBq) of the radiolabeled heterodimer in 1% bovine serum albumin (BSA) in PBS. For the mice in the blocked group, 7.5 nmol of either unlabeled NOTA-PEG4-RM26 or PSMA-617 was added to the radiolabeled heterodimer in order to block GRPR in PC-3 xenografted mice or PSMA in LNCaP xenografted mice, respectively. Animals were sacrificed by heart punctures exsanguination after pre-injection of Ketalar–Rompun solution (10 mg/mL Ketalar and 1 mg/mL Rompun; 20 μL solution/gram of body weight). The mice were dissected 1 h post-injection (pi) and the organs of interest were collected. The activity uptake in organs was measured.
In data set [5] the target is T1, PSMA. On the set-up: method as in PMID 25883127. The conditions noted are these: cited from earlier work.
Data set [6] relates to PC-3 cells (GRPR positive). As to the kind of experiment: Cellular retention of activity after interrupted incubation, PC-3 cells. The conditions noted are these: 24 h of incubation, normalized to 0 h. The data set is classed as cell-based. On the procedure: as §1
Data set [7] has as its system LNCaP cells (PSMA positive). As to the kind of experiment: Cellular retention of activity after interrupted incubation, LNCaP cells. Conditions: 24 h. It counts as cell-based. On the procedure: as §1
Details of data set [8]: species or system Balb/c nu/nu mice. Conditions: mouse, in vivo. On the procedure:
(§2) The radioactivity uptake in organs was studied 1, 3, 24, and 72 h pi as described above.

Data set [9] deals with PC-3pip (GRPR and PSMA positive) xenografts. Details: species or system Balb/c nu/nu mice. The conditions noted are these: mouse, in vivo. On the procedure:
as §2

Bounds are passed on as bounds.

In general, IC50 refers to the concentration needed to halve the response being measured. Read a high IC50 as lower potency. The term logD denotes lipophilicity at a set pH, counting ionised and neutral species. Low readings indicate lower lipophilicity, high ones higher lipophilicity. As usually defined, the tissue uptake is the percentage of the injected dose found per gram of tissue. A higher tissue uptake goes with high uptake.

T1 sequence (Q04609 whole entry): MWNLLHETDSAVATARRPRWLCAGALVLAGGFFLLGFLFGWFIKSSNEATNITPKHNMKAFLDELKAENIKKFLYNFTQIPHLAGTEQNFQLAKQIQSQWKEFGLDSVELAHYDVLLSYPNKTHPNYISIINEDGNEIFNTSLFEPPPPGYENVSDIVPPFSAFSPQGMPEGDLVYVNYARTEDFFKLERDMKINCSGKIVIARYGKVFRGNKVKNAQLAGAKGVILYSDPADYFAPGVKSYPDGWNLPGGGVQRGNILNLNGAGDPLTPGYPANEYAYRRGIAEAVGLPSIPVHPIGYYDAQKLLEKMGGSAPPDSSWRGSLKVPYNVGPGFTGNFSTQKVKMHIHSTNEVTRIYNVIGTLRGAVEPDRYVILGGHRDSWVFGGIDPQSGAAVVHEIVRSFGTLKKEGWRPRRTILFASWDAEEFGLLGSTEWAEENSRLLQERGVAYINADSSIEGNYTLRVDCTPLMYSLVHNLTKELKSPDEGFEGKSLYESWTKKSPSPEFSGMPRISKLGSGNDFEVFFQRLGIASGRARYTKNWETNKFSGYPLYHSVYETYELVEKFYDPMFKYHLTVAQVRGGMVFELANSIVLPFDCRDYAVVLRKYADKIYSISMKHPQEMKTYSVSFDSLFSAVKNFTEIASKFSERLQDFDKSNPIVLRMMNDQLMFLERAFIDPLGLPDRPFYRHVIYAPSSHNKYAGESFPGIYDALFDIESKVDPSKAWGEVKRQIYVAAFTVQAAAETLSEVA

`CC(C)C[C@H](NC(=O)C[C@H](O)[C@H](CC(C)C)NC(=O)[C@H](Cc1c[nH]cn1)NC(=O)CNC(=O)[C@@H](NC(=O)[C@H](C)NC(=O)[C@H](Cc1c[nH]c2ccccc12)NC(=O)[C@H](CCC(N)=O)NC(=O)[C@@H](Cc1ccccc1)NC(=O)CCOCCOCCNC(=O)[C@H](Cc1ccc(O)cc1)n1cc(COCCOCCC(=O)NC[C@H]2CC[C@H](C(=O)N[C@@H](Cc3ccc4ccccc4c3)C(=O)NCCCC[C@H](NC(=O)N[C@@H](CCC(=O)O)C(=O)O)C(=O)O)CC2)nn1)C(C)C)C(N)=O` [BO530] gave an IC50 in data set [1] of 98 ± 13 nM.

In data set [2], `CC(C)C[C@H](NC(=O)C[C@H](O)[C@H](CC(C)C)NC(=O)[C@H](Cc1c[nH]cn1)NC(=O)CNC(=O)[C@@H](NC(=O)[C@H](C)NC(=O)[C@H](Cc1c[nH]c2ccccc12)NC(=O)[C@H](CCC(N)=O)NC(=O)[C@@H](Cc1ccccc1)NC(=O)CCOCCOCCNC(=O)[C@H](Cc1ccc(O)c(I)c1)n1cc(CCCCCCCC(=O)NC[C@H]2CC[C@H](C(=O)N[C@@H](Cc3ccc4ccccc4c3)C(=O)NCCCC[C@H](NC(=O)N[C@@H](CCC(=O)O)C(=O)O)C(=O)O)CC2)nn1)C(C)C)C(N)=O` [[^125I]I-BO535] displayed a logD of 1.07. The “decrease of cell-associated activity” value in data set [3] was determined as 35%. Further, the “difference in tumor activity uptake between non-blocked and blocked groups (in vivo specificity to PSMA)” value in [4] is on record as “failed to demonstrate in vivo specificity”.

Regarding `O=C([O-])CN1CCN(CC(=O)[O-])CCN(CC(=O)NCC2CCC(C(=O)N[C@@H](Cc3ccc4ccccc4c3)C(=O)NCCCC[C@H](NC(=O)N[C@@H](CCC(=O)O)C(=O)O)C(=O)O)CC2)CCN(CC(=O)[O-])CC1.[177Lu+3]` (some centres unmarked) [^177Lu-PSMA-617], the “initial uptake in kidneys versus tumors” value in data set [5] is listed as “at least 10 fold”.

`CC(C)C[C@H](NC(=O)C[C@H](O)[C@H](CC(C)C)NC(=O)[C@H](Cc1c[nH]cn1)NC(=O)CNC(=O)[C@@H](NC(=O)[C@H](C)NC(=O)[C@H](Cc1c[nH]c2ccccc12)NC(=O)[C@H](CCC(N)=O)NC(=O)[C@@H](Cc1ccccc1)NC(=O)CCOCCOCCNC(=O)[C@H](Cc1ccc(O)c(I)c1)n1cc(COCCOCCC(=O)NC[C@H]2CC[C@H](C(=O)N[C@@H](Cc3ccc4ccccc4c3)C(=O)NCCCC[C@H](NC(=O)N[C@@H](CCC(=O)O)C(=O)O)C(=O)O)CC2)nn1)C(C)C)C(N)=O` [[^125I]I-BO530] yielded a logD in [2] of -0.52. Further, the “decrease of cell-associated activity” value in data set [3] is reported as 20%. In [6], the cell-associated activity is on record as 14% ± 2%. For the same molecule, the “cell associated activity from initial” value in data set [7] is on record as 60%. Moreover, the tissue uptake at 24 h in [8] is less than 1 %ID/g. Further, in [9], the “area under the curve (AUC), kidneys versus tumors” value was “more than two-fold higher” and the “area under the curve (AUC), tumor versus blood” value turned out to be 10 fold. For the same molecule, the “difference in tumor activity uptake between non-blocked and blocked groups (in vivo specificity to PSMA)” value in data set [4] is given as “demonstrated significant difference”.

As for `CC(C)C[C@H](NC(=O)C[C@H](O)[C@H](CC(C)C)NC(=O)[C@H](Cc1c[nH]cn1)NC(=O)CNC(=O)[C@@H](NC(=O)[C@H](C)NC(=O)[C@H](Cc1c[nH]c2ccccc12)NC(=O)[C@H](CCC(N)=O)NC(=O)[C@@H](Cc1ccccc1)NC(=O)CCOCCOCCNC(=O)[C@H](Cc1ccc(O)cc1)n1cc(CCCCCCCC(=O)NC[C@H]2CC[C@H](C(=O)N[C@@H](Cc3ccc4ccccc4c3)C(=O)NCCCC[C@H](NC(=O)N[C@@H](CCC(=O)O)C(=O)O)C(=O)O)CC2)nn1)C(C)C)C(N)=O` [BO535], in data set [1], the IC50 was determined as 100 ± 10 nM.

The values are drawn from publication PMC6680768, “Synthesis and Preclinical Evaluation of Radio-Iodinated GRPR/PSMA Bispecific Heterodimers for the Theranostics Application in Prostate Cancer” (Pharmaceutics, 2019).
